Our source for the Activity and MIC values is ChEMBL document CHEMBL5360620, “Diphenyl Ether Derivative Rhexocerins and Rhexocercosporins from the Endophytic Fungus Rhexocercosporidium sp. Dzf14 Active against Gram-Positive Bacteria with Multidrug-Resistance” (J Nat Prod, 2023).

One data set deals with HCT-8. Briefly: Cytotoxicity against human HCT-8 cells by MTT assay. It is filed as toxicity, cell-based. A general note: Tetrazolium assays rely on reduction of a dye to a coloured formazan, in cell work by metabolically active cells.
A further data set deals with PANC-1. Nature of the data set: Cytotoxicity against human PANC-1 cells by MTT assay. The data set is classed as toxicity, cell-based.
In the next data set the test system is PC-9. Nature of the data set: Cytotoxicity against human PC-9 cells by MTT assay. The data set is classed as toxicity, cell-based.
In another data set the test system is HepG2. Briefly: Cytotoxicity against human HepG2 cells by MTT assay. The data set is classed as toxicity, cell-based.
The next data set deals with Pseudomonas aeruginosa. Nature of the data set: Antibacterial activity against wild-type Pseudomonas aeruginosa PAO1 incubated for 18 hrs by broth microdilution method. It is filed as functional. (In general: Dilution methods test growth across graded concentrations, often in twofold steps.)
The next data set concerns Escherichia coli. Nature of the data set: Antibacterial activity against multi-drug resistant Escherichia coli B2 clinical isolate incubated for 18 hrs by broth microdilution method. The data set is classed as functional.
The next data set relates to Enterococcus faecalis. Briefly: Antibacterial activity against vancomycin-resistant Enterococcus faecalis 10 incubated for 18 hrs by broth microdilution method. The data set is classed as functional.
Another data set concerns HGC-27. Nature of the data set: Cytotoxicity against human HGC-27 cells by MTT assay. It is filed as toxicity, cell-based.
The next data set concerns Staphylococcus aureus. Briefly: Antibacterial activity against methicillin-resistant Staphylococcus aureus T144 incubated for 18 hrs by broth microdilution method. The data set is classed as functional.

Values after ≈ are worked out from the molar mass of the structure shown.

For `COC(=O)c1c(O)cc2c(c1C)C=C1c3c(cc(C)c(O)c3O2)OC1(C)C`, the Activity result in the data set with HCT-8, in the data set on PANC-1, in the data set on PC-9, in the data set with HepG2 and with HGC-27 was “Non-Toxic” throughout. Also, the MIC (as a rule, the lowest concentration found to suppress growth) was greater than 32 µg/mL in the data set with Pseudomonas aeruginosa, greater than 32 µg/mL against Escherichia coli, 16 µg/mL (≈ 43.4 µM) with Enterococcus faecalis and 16 µg/mL (≈ 43.4 µM) in the data set on Staphylococcus aureus.

Consider `COC(=O)c1c(OC)cc2c(c1C)[C@@H](C=C(C)C)c1c(O)cc(C)cc1O2`, for which the Activity entry with HCT-8, in the data set on PANC-1, in the data set on PC-9, with HepG2 and with HGC-27 was “Non-Toxic” in each case. For the same compound, the MIC with Pseudomonas aeruginosa was greater than 32 µg/mL; in the data set on Escherichia coli, greater than 32 µg/mL; against Enterococcus faecalis it was 4 µg/mL (≈ 10.9 µM); against Staphylococcus aureus, 4 µg/mL (≈ 10.9 µM).

For `CC(C)=C[C@H]1c2c(O)cc(C)cc2Oc2cc(O)c(C(=O)O)c(C)c21`, the Activity entry in the data set with HCT-8, in the data set on PANC-1, with PC-9, with HepG2 and in the data set on HGC-27 was “Non-Toxic” each time. The MIC is greater than 32 µg/mL against Pseudomonas aeruginosa, greater than 32 µg/mL against Escherichia coli, 16 µg/mL (≈ 47 µM) in the data set with Enterococcus faecalis and 16 µg/mL (≈ 47 µM) in the data set with Staphylococcus aureus.

For the compound `COC(=O)c1c(O)cc2c(c1C)[C@@H](C=C(C)C)c1c(O)cc(C)cc1O2`, the Activity entry in the data set with HCT-8, in the data set with PANC-1, in the data set on PC-9, in the data set with HepG2 and in the data set on HGC-27 was “Non-Toxic” each time. Also, the MIC was greater than 32 µg/mL in the data set with Pseudomonas aeruginosa, greater than 32 µg/mL with Escherichia coli, 8 µg/mL (≈ 22.6 µM) in the data set with Enterococcus faecalis and 16 µg/mL (≈ 45.1 µM) with Staphylococcus aureus.

For the compound `COC(=O)c1c(OC)cc2c(c1C)[C@@H](C=C(C)C)C1=C(O2)C(=O)C(C)=CC1=O`, the Activity entry in the data set on HCT-8, in the data set with PANC-1, with PC-9, in the data set on HepG2 and in the data set on HGC-27 was “Non-Toxic” in each case. Besides, the MIC with Pseudomonas aeruginosa is greater than 32 µg/mL; in the data set on Escherichia coli, greater than 32 µg/mL; with Enterococcus faecalis, 8 µg/mL (≈ 20.9 µM); in the data set with Staphylococcus aureus it was 32 µg/mL (≈ 83.7 µM).

With `COC(=O)c1c(OC)cc2c(c1C)[C@H](O)[C@H]1c3c(cc(C)c(O)c3O2)OC1(C)C`, the Activity entry in the data set with HCT-8, with PANC-1, in the data set on PC-9, with HepG2 and in the data set on HGC-27 was “Non-Toxic” throughout.

As to `COC(=O)c1c(OC)cc2c(c1C)C=C1c3c(cc(C)c(O)c3O2)OC1(C)C`, the Activity result in the data set on HCT-8, in the data set with PANC-1, with PC-9, in the data set on HepG2 and with HGC-27 was “Non-Toxic” in each case.

As to COLISTIN, the MIC turned out to be 0.13 µg/mL against Pseudomonas aeruginosa and 2 µg/mL against Escherichia coli.

`COC(=O)c1c(OC)cc2c(c1C)[C@H](OC)[C@H]1c3c(cc(C)c(O)c3O2)OC1(C)C`: the Activity entry in the data set with HCT-8, in the data set on PANC-1, in the data set on PC-9, with HepG2 and in the data set on HGC-27 was “Non-Toxic” each time.

In the data set on Enterococcus faecalis, `CN[C@H](CC(C)C)C(=O)N[C@H]1C(=O)N[C@@H](CC(N)=O)C(=O)N[C@H]2C(=O)N[C@H]3C(=O)N[C@H](C(=O)N[C@H](C(=O)O)c4cc(O)cc(O)c4-c4cc3ccc4O)[C@H](O)c3ccc(c(Cl)c3)Oc3cc2cc(c3O[C@@H]2O[C@H](CO)[C@@H](O)[C@H](O)[C@H]2O[C@H]2C[C@](C)(N)[C@H](O)[C@H](C)O2)Oc2ccc(cc2Cl)[C@H]1O` [VANCOMYCIN] yielded an MIC greater than 128 µg/mL.

`COC(=O)c1c(OC)cc2c(c1C)[C@@H](C=C(C)C)c1c(O)cc(C)c(OC)c1O2`: the Activity entry with HCT-8, in the data set on PANC-1, in the data set with PC-9, in the data set with HepG2 and in the data set with HGC-27 was “Non-Toxic” in each case.

Take `COC(=O)c1c(O)cc2c(c1C)[C@@H](C=C(C)C)C1=C(O2)C(=O)C(C)=CC1=O`: the Activity result in the data set on HCT-8, in the data set with PANC-1, with PC-9, in the data set on HepG2 and in the data set with HGC-27 was “Non-Toxic” each time. Besides, the MIC against Pseudomonas aeruginosa is greater than 32 µg/mL; against Escherichia coli, greater than 32 µg/mL; against Enterococcus faecalis, 8 µg/mL (≈ 21.7 µM); against Staphylococcus aureus, greater than 32 µg/mL.
